# Reference: PubChem BioAssay (NCI)
#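 Grown in 96-well plates, cells were treated for 48 hours with each compound at five concentrations. Insufficient inhibition: endpoint recorded as highest concentration tested. The concentration for full growth arrest is given as TGI.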
# Legend:
# Assay in all cases: NCI anticancer screen, dose series, 48 h
# [1] = test system: 786-0 renal
# [2] = test system: A498 renal
# [3] = test system: A549 NSCLC
# [4] = test system: ACHN renal
# [5] = test system: BT-549 breast
# [6] = test system: CAKI-1 renal
# [7] = test system: CCRF-CEM leukemia
# [8] = test system: COLO 205 colon
# [9] = test system: DU-145 prostate
# [10] = test system: EKVX NSCLC
# [11] = test system: HCT-116 colon
# [12] = test system: HCT-15 colon
# [13] = test system: HL-60(TB) leukemia
# [14] = test system: HOP-62 NSCLC
# [15] = test system: HOP-92 NSCLC
# [16] = test system: HS 578T breast
# [17] = test system: HT29 colon
# [18] = test system: IGROV1 ovarian
# [19] = test system: K-562 leukemia
# [20] = test system: KM12 colon
# [21] = test system: LOX IMVI melanoma
# [22] = test system: M14 melanoma
# [23] = test system: MALME-3M melanoma
# [24] = test system: MDA-MB-231 breast
# [25] = test system: MDA-MB-435
# [26] = test system: MDA-N
# [27] = test system: MOLT-4 leukemia
# [28] = test system: NCI-H226 lung
# [29] = test system: NCI-H23 lung
# [30] = test system: NCI-H460 lung
# [31] = test system: NCI/ADR-RES ovarian
# [32] = test system: OVCAR-3 ovarian
# [33] = test system: OVCAR-4 ovarian
# [34] = test system: OVCAR-5 ovarian
# [35] = test system: OVCAR-8 ovarian
# [36] = test system: PC-3 prostate
# [37] = test system: RPMI-8226 leukemia
# [38] = test system: RXF 393 renal
# [39] = test system: SF-268 CNS
# [40] = test system: SF-295 CNS
# [41] = test system: SF-539 CNS
# [42] = test system: SK-MEL-2 melanoma
# [43] = test system: SK-MEL-28 melanoma
# [44] = test system: SK-OV-3 ovarian
# [45] = test system: SN12C renal
# [46] = test system: SNB-19 CNS
# [47] = test system: SNB-75 CNS
# [48] = test system: SR leukemia
# [49] = test system: SW-620 colon
# [50] = test system: T-47D breast
# [51] = test system: TK-10 renal
# [52] = test system: U251 CNS
# [53] = test system: UACC-257 melanoma
# [54] = test system: UACC-62 melanoma
# [55] = test system: UO-31 renal
# [56] = test system: HCC-2998 colon
# [57] = test system: NCI-H522 lung
# [58] = test system: SK-MEL-5 melanoma
compound,measurement,setting,value
Cc1nn(C(=O)c2ccccc2O)c2c1C(c1ccco1)SC(N)=N2 (stereo not drawn),TGI,[1],> 10 µM
same,TGI,[2],> 10 µM
same,TGI,[3],> 10 µM
same,TGI,[4],> 10 µM
same,TGI,[5],> 10 µM
same,TGI,[6],> 10 µM
same,TGI,[7],> 10 µM
same,TGI,[8],> 10 µM
same,TGI,[9],> 10 µM
same,TGI,[10],> 10 µM
same,TGI,[11],> 10 µM
same,TGI,[12],> 10 µM
same,TGI,[13],> 10 µM
same,TGI,[14],6.8 µM
same,TGI,[15],> 10 µM
same,TGI,[16],> 10 µM
same,TGI,[17],> 10 µM
same,TGI,[18],> 10 µM
same,TGI,[19],> 10 µM
same,TGI,[20],> 10 µM
same,TGI,[21],> 10 µM
same,TGI,[22],> 10 µM
same,TGI,[23],> 10 µM
same,TGI,[24],> 10 µM
same,TGI,[25],> 10 µM
same,TGI,[26],> 10 µM
same,TGI,[27],> 10 µM
same,TGI,[28],> 10 µM
same,TGI,[29],> 10 µM
same,TGI,[30],> 10 µM
same,TGI,[31],8.16 µM
same,TGI,[32],> 10 µM
same,TGI,[33],> 10 µM
same,TGI,[34],> 10 µM
same,TGI,[35],> 10 µM
same,TGI,[36],> 10 µM
same,TGI,[37],> 10 µM
same,TGI,[38],> 10 µM
same,TGI,[39],> 10 µM
same,TGI,[40],> 10 µM
same,TGI,[41],> 10 µM
same,TGI,[42],> 10 µM
same,TGI,[43],> 10 µM
same,TGI,[44],> 10 µM
same,TGI,[45],> 10 µM
same,TGI,[46],> 10 µM
same,TGI,[47],> 10 µM
same,TGI,[48],> 10 µM
same,TGI,[49],> 10 µM
same,TGI,[50],> 10 µM
same,TGI,[51],> 10 µM
same,TGI,[52],> 10 µM
same,TGI,[53],> 10 µM
same,TGI,[54],6 µM
same,TGI,[55],> 10 µM
Cc1ccc(S(=O)(=O)NC(C(=O)O)C(C)C)cc1 (stereo not drawn),TGI,[1],> 100 µM
same,TGI,[2],> 100 µM
same,TGI,[3],> 100 µM
same,TGI,[4],> 100 µM
same,TGI,[5],> 100 µM
same,TGI,[6],> 100 µM
same,TGI,[7],> 100 µM
same,TGI,[9],> 100 µM
same,TGI,[10],> 100 µM
same,TGI,[56],> 100 µM
same,TGI,[11],> 100 µM
same,TGI,[12],> 100 µM
same,TGI,[14],> 100 µM
same,TGI,[15],> 100 µM
same,TGI,[16],> 100 µM
same,TGI,[17],> 100 µM
same,TGI,[18],> 100 µM
same,TGI,[19],> 100 µM
same,TGI,[20],> 100 µM
same,TGI,[21],> 100 µM
same,TGI,[22],> 100 µM
same,TGI,[23],> 100 µM
same,TGI,[24],> 100 µM
same,TGI,[25],> 100 µM
same,TGI,[26],> 100 µM
same,TGI,[27],> 100 µM
same,TGI,[28],> 100 µM
same,TGI,[29],> 100 µM
same,TGI,[30],> 100 µM
same,TGI,[57],> 100 µM
same,TGI,[31],> 100 µM
same,TGI,[32],> 100 µM
same,TGI,[33],> 100 µM
same,TGI,[34],> 100 µM
same,TGI,[35],> 100 µM
same,TGI,[36],> 100 µM
same,TGI,[38],> 100 µM
same,TGI,[39],> 100 µM
same,TGI,[40],> 100 µM
same,TGI,[42],> 100 µM
same,TGI,[43],> 100 µM
same,TGI,[58],> 100 µM
same,TGI,[45],> 100 µM
same,TGI,[46],> 100 µM
same,TGI,[47],> 100 µM
same,TGI,[48],> 100 µM
same,TGI,[49],> 100 µM
same,TGI,[50],> 100 µM
same,TGI,[51],> 100 µM
same,TGI,[52],> 100 µM
same,TGI,[53],> 100 µM
same,TGI,[54],> 100 µM
same,TGI,[55],> 100 µM
